Patent US20080221114A1, “2-(Cyclic Aminocarbonyl) Indoline Derivative and Medicinal Composition Containing the Same” (priority 2005, published 2008)

Tests used:
[1] = target: T1, mitochondrial benzodiazepine receptor (MBR) (Rattus norvegicus, UniProt P16257); assay: Binding assay of mitochondrial benzodiazepine receptor (MBR), [3H]4'-chlorodiazepam (Ro5-4864), rat kidney membrane-preparation; details: rat kidney membranes, [3H]4'-chlorodiazepam 0.5 nM, 0° C. for 150 minutes
T1 construct: from tissue; host or cells: kidney of male Wistar rats (crude membrane preparation)
Outline: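 Kidney membranes from male Wistar rats were incubated with 0.5 nM [3H]Ro5-4864 in pH 7.4 sodium/potassium phosphate buffer with 100 mM NaCl for 150 min at 0 °C, then filtered. Nonspecific binding was defined with 50 μM diazepam. IC50 was obtained by nonlinear least-squares fitting of specific-binding inhibition.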

[2] = system: mice (male ddY); assay: Social interaction test (antianxiety effect); type: in vivo, mouse; details: oral, 1 hour before test; statistically significant increase in social interaction time vs vehicle (Dunnett's test, 5%)
Text: The test is a behavioral pharmacological test wherein social interaction time which would arise between 2 animals (mice, rats or other) in a test apparatus is considered to be as an anxious indicator [see; File, S. E., J. Neurosci. Methods, 2, 219-238 (1980)]. It is known that a bright and unfamiliar test apparatus which is an aversive condition for mice or rats may suppress a social interaction of the animals and such suppressed social interaction may be restored by an antianxiety drug such as benzodiazepines.
A glass beaker which was inverted onto a frosted glass plate was brightly illuminated with a light source (ca. 1200 lux in the apparatus), and it was used as a test apparatus. Two mice (male ddY, 22-32 g) that were housed in separate home cages were orally treated with a test compound and returned to their home cages. One hour after the oral administration, the two mice were then placed together in the test apparatus, and the amount of time spent in social interaction by the two mice during a 15-minute period was recorded. The social interaction was defined as grooming and sniffing of the partner, genital investigation of the partner, climbing over or crawling under the partner. Four to five pairs (8 to 10 mice) were used per a group.
An antianxiety effect of the test compounds was presented as a minimum effective dose which indicated statistically significant increase in social interaction time as compared with a vehicle control group (Dunnett's test, Significance level: 5%).

[3] = system: male Std-Wistar rats; assay: Forced swimming test (antidepressant effect); type: in vivo, rat; details: 1 mg/kg orally 3 times (24 hours, 4 hours and 1 hour before the test); 6-minute period; vs vehicle, p<0.01
Protocol: An animal (mouse or rat) which is forced to swim in an inescapable water tank show an immobile posture, thought to reflect a state of behavioral despair, after an initial period of vigorous swimming activity. The forced swimming test, a behavioral despair model, is frequently used for evaluating antidepressant effect since a lot of antidepressants reduce the duration of immobility induced by forced swimming. The antidepressant effect of the compound of the present invention was evaluated in the forced swimming test based on the method of Porsolt R. D. et al. [see; Eur. J. Pharmacol., 47, 379-391 (1978)] with a minor modification.
In the test, a group of five male Std-Wistar rats, weighing 110-150 g, which were selected after training session was used. […]
The test compound (the compound of Example 40) was orally administered 3 times, i.e., 24 hours, 4 hours and 1 hour before the test. One hour after the final oral administration, the rats were put into the water and the immobile time observed during a 6-minute period was recorded. The effect shortening the immobile time in the test compound-treated group was evaluated using a Dunnett's multiple comparison test as compared with the vehicle control group.

| IC50 [1] | melting point | Compound | Minimum effective dose [2] | shortening of the immobile time [3] |
| --- | --- | --- | --- | --- |
| 6.05 nM | 219 to 221 °C | C[C@H]1CCCN(C(=O)[C@@H]2Cc3ccccc3N2c2ccc(=O)n(C)n2)C1 [Example 40, (S)-1-(1-methyl-6-oxo-1,6-dihydropyridazin-3-yl)-2-[[(S)-3-methylpiperidin-1-yl]carbonyl]indoline] | 1 mg/kg | 28% |
| 2.51 nM | 143 to 145 °C | C[C@H]1CCCN(C(=O)[C@@H]2Cc3ccccc3N2c2cccnn2)C1 [Example 63, (S)-2-[(S)-3-methylpiperidin-1-yl]carbonyl-1-(3-pyridazinyl)indoline] | 0.01 mg/kg | – |
